Experimental data as given in PubChem BioAssay (NCI).
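In this assay, cells in 96-well plates receive the compound at five concentrations for 48 hours. Endpoints are linearly interpolated between the surrounding concentrations. The concentration for full growth arrest is given as TGI.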

Assays:
Assay in all cases: growth of human tumour cells (NCI), 48 h
MALME-3M melanoma = system: MALME-3M melanoma
IGROV1 ovarian = system: IGROV1 ovarian
RPMI-8226 leukemia = system: RPMI-8226 leukemia
NCI-H522 lung = system: NCI-H522 lung
CCRF-CEM leukemia = system: CCRF-CEM leukemia
NCI-H226 lung = system: NCI-H226 lung
NCI-H23 lung = system: NCI-H23 lung
EKVX NSCLC = system: EKVX NSCLC
UACC-257 melanoma = system: UACC-257 melanoma
MCF7 breast = system: MCF7 breast
CAKI-1 renal = system: CAKI-1 renal
M14 melanoma = system: M14 melanoma
SF-295 CNS = system: SF-295 CNS
SNB-75 CNS = system: SNB-75 CNS
UO-31 renal = system: UO-31 renal
RXF 393 renal = system: RXF 393 renal
KM12 colon = system: KM12 colon
HCT-15 colon = system: HCT-15 colon
ACHN renal = system: ACHN renal
HCC-2998 colon = system: HCC-2998 colon
SR leukemia = system: SR leukemia
OVCAR-4 ovarian = system: OVCAR-4 ovarian
SW-620 colon = system: SW-620 colon
SF-268 CNS = system: SF-268 CNS
SK-MEL-5 melanoma = system: SK-MEL-5 melanoma
SK-MEL-2 melanoma = system: SK-MEL-2 melanoma
MDA-MB-435 = system: MDA-MB-435
DU-145 prostate = system: DU-145 prostate
U251 CNS = system: U251 CNS
HS 578T breast = system: HS 578T breast
786-0 renal = system: 786-0 renal
NCI-H460 lung = system: NCI-H460 lung
PC-3 prostate = system: PC-3 prostate
HOP-92 NSCLC = system: HOP-92 NSCLC
SK-MEL-28 melanoma = system: SK-MEL-28 melanoma
HL-60(TB) leukemia = system: HL-60(TB) leukemia
A549 NSCLC = system: A549 NSCLC
SNB-19 CNS = system: SNB-19 CNS
OVCAR-3 ovarian = system: OVCAR-3 ovarian
COLO 205 colon = system: COLO 205 colon
BT-549 breast = system: BT-549 breast
OVCAR-5 ovarian = system: OVCAR-5 ovarian
T-47D breast = system: T-47D breast
K-562 leukemia = system: K-562 leukemia
SN12C renal = system: SN12C renal
MDA-N = system: MDA-N
LOX IMVI melanoma = system: LOX IMVI melanoma
SF-539 CNS = system: SF-539 CNS
NCI/ADR-RES ovarian = system: NCI/ADR-RES ovarian
HOP-62 NSCLC = system: HOP-62 NSCLC
OVCAR-8 ovarian = system: OVCAR-8 ovarian
MOLT-4 leukemia = system: MOLT-4 leukemia
UACC-62 melanoma = system: UACC-62 melanoma
SK-OV-3 ovarian = system: SK-OV-3 ovarian
HCT-116 colon = system: HCT-116 colon
TK-10 renal = system: TK-10 renal
MDA-MB-231 breast = system: MDA-MB-231 breast
HT29 colon = system: HT29 colon

Measured: TGI

COc1cc(C(=O)O)ccc1OS(=O)(=O)O
> 100 µM: all assays above

N#Cc1c(N)c2c(c(-c3ccccc3)c1-c1ccccc1)C(=O)N(N)C2=O
not listed: LOX IMVI melanoma | HOP-62 NSCLC
> 100 µM: all other assays above
